In paper PMC6572135, “N-Methyl-D-glucamine–Calix[4]resorcinarene Conjugates: Self-Assembly and Biological Properties” (Molecules, 2019):

Assay: Conductometry, critical aggregation concentration
Type: physicochemical
Details: water solution, 25 °C; GCR-2 in the presence of two-fold excess of MG
Protocol: Firstly, self-assembly of GCR-1 was studied by conductometric measurements (Figure 1). Specific conductivity increases proportionately with the GCR-1 concentration in water solution. Inflection on the plot appears at 14 mM, and after this critical aggregation concentration (CAC) the increment rate of conductivity reduces because the aggregates transfer charge less efficiently than monomers. Remarkably, modification of calix[4]resorcinarene by N-methyl-D-glucamine fragment facilitates self-aggregation of macrocycle in water medium (Figure 1). The CAC value for calix[4]resorcinarene (CR-1) without meglumine units at the upper rim is 20 mM that is greater than that for meglumine-modified calix[4]resorcinarene. The driving forces of intermolecular aggregates’ formation are probably hydrogen bonds between hydroxyl groups on the GCR-1 upper rim, so the presence of additional OH-groups in the meglumine group reinforces this noncovalent interaction. A stable pH value, which can be observed over a wide range of concentrations, verifies that the N-methyl-D-glucamine fragment is an effective buffer component (Figure S4). […] As a result, the aggregation of this calix[4]resorcinarene was studied in water solutions at the presence of two-fold excess of N-methyl-D-glucamine (MG). […] Specific conductivity values were measured at least three times for each concentration. […]

With “Sulfonatoethylcalix[4]resorcinarene [CR-1, reference compound]” the “CAC, conductometry” value was 20 mM.
